We go through 1 compound from US20250387359A1, “COMPOUNDS AND METHODS FOR THE TREATMENT OF PARASITIC INFECTIONS” (THE BOARD OF TRUSTEES OF THE UNIVERSITY OF ILLINOIS, priority 2019, published 2025).

Each structure is given as a SMILES string.

For data set [1], the target named is recombinant CpLDH protein (Cryptosporidium parvum, UniProt Q9GT92, F198L/K295E/R251K). The data set is described as follows: biochemical. In kind it is biochemical. The protocol: Biochemical assays. The coding sequence of CpLDH was cloned from cDNA prepared from the AUCP-1 isolate of C. parvum, and the His-tagged CpLDH recombinant protein expressed in Escherichia coli, and purified in native form essentially as previously described (Int. J. Parasitol. 2017; 47(13), 867-874). Briefly, cDNA was prepared from total RNA extracted from the AUCP-1 isolate of C. parvum, and the coding sequencing of CpLDH (Genebank accession number AF274310.1) was PCR-amplified from the cDNA using a primer pair with a XhoI restriction site and a BamHI site. The PCR amplicon was cloned at the XhoI/BamHI site of the pET15b expression vector in-frame with the hexahistidine (His-tag) at the N-terminal and sequenced to confirm identity. The recombinant expression vector was transformed into protein expression E. coli BL21-CodonPlus-DE3-RIL (Stratagene). Transformed E. coli was cultured at 37° C. in Luria broth medium (supplemented with 100 μg/ml ampicillin and 34 μg/ml chloramphenicol) to an A600 of 0.8 followed by addition of 1 mM isopropyl-β-d-thiogalactopyranoside to induce protein expression. The expression E. coli was harvested and lysed under native conditions by sonicating in lysis buffer (50 mM NaH2PO4, 300 mM NaCl, 10 mM Imidazole, pH 8.0) containing a 1× EDTA-free protease inhibitor cocktail, 600 units benzonase and 30 kU lysozyme (EMD Millipore). The lysate was clarified by centrifugation and the His-tagged recombinant protein purified under native conditions by nickel-affinity chromatography according to the manufacturer's instructions (Novagen). The wash buffer used contained 50 mM NaH2PO4, 300 mM NaCl and 20 mM Imidazole, pH 8.0, while the elution buffer was composed of 50 mM NaH2PO4, 300 mM NaCl, 250 mM Imidazole, pH 8.0. The eluate was dialyzed using a buffer containing 5 mM Hepes-KOH (pH 7.8) and 0.5 mM DTT. The purity of the recombinant protein was determined by SDS/PAGE, and the concentration measured using a Qubit 3.0 fluorometer (Life technologies). […] On the other hand, the catalytic activity of CpLDH recombinant protein for the oxidation of lactate to pyruvate was determined by measuring the change in optical density of a 100 μl reaction mixture containing 100 mM lactate, 1 mM NAD^+, 100 mM Tris, pH 9.2, with varying concentrations of CpLDH recombinant protein at 25° C. […] In all assays, reaction mixtures without recombinant CpLDH protein were included as negative controls. All assays were performed in triplicate and repeated at least thrice. The change in optical density was measured every 15 seconds for a total of 2 minutes using a Spectra Max 384 Plus plate reader (Molecular Devices) at a wavelength of 340 nm.
recombinant CpLDH protein, sequence (Q9GT92 whole entry F198L/K295E/R251K): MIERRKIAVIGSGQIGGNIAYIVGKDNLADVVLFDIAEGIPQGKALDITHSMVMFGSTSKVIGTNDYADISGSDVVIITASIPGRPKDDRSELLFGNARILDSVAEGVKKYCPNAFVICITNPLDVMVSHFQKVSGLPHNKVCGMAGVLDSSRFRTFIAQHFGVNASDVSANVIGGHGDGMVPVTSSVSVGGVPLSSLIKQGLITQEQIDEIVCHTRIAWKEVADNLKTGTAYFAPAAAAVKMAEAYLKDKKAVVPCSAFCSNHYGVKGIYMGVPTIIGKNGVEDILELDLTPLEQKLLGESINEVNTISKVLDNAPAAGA
Screening compounds for inhibitory activity against CpLDH. The chemical compounds were obtained from the National Cancer Institute/Developmental Therapeutics Program Open Chemical Repository. They consisted of a diverse set of compounds (n=27) reported previously (Int J Parasitol Drugs Drug Resist. 2016; 6(1), 44-53), and a Mechanistic Set IV compounds (n=800). The compounds were reconstituted in dimethyl sulfoxide (DMSO) as stock solutions. Just before use, aliquots of the stock solutions were diluted in sterile distilled water to generate working solutions, such that the final amount of DMSO added to the reaction mixtures was less than 1% (V/V). The compounds were tested for their inhibitory effect against the enzymatic activity of recombinant His-tagged CpLDH for catalyzing the reduction of pyruvate to lactate. […] Control reactions without recombinant CpLDH protein were included. Reactions were performed in triplicate and repeated at least thrice. The change in optical density was measured every 15 seconds for a total of 2 minutes using a Spectra Max 384 Plus plate reader (Molecular Devices) at a wavelength of 340 nm.

Data set [2] is described as follows: Compound cytotoxicity assay (WST-1) in HCT-8 cells. In kind it is cell-based, human. The following applies: human; HCT-8 cells, 24 h, WST-1. How it is done: Compound cytotoxicity assay. […] A colorimetric assay using the cell proliferation reagent WST-1 (Roche, USA) for the quantification of cell viability was performed. […] When the cells were confluent, the old medium was replaced with fresh medium with or without varying concentrations of chemical compound. After 24 h of culture, 10 μl of the cell proliferation reagent WST-1, (for quantification of cell viability) was added to each well, mixed and the plates incubated for 1 h at 37 C with 5% CO2 in the dark. […] Molecular Devices, USA).
For orientation: Tetrazolium assays rely on reduction of a dye to a coloured formazan, in cell work by metabolically active cells.

The term IC50 denotes the concentration that inhibits the measured activity by half. In the case of `O=C1c2ccccc2C(=O)c2c(O)c(O)cc(O)c21` [NSC10447], the half-maximal inhibitory concentration (IC50) in data set [1] was 46.3 µM. For the same compound, the “effect on catalytic activity of recombinant CpLDH” value in data set [1] (20 μM compound, 10 mM pyruvate, 1 mM NADH) is “significant (P<0.05) inhibitory effect”. The 50% inhibitory concentration (IC50) at 24 h in data set [2] came out at 290 µM.
